“And” between values parts separate entries of the source, which are not always exact repeats. Identical values can stand only once.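 Method: 48-hour compound exposure of cells in 96-well plates, five concentrations, linear interpolation of endpoints. The concentration for 50% growth inhibition is given as GI50. TGI: total growth inhibition.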
Legend:
Experiment in all cases: NCI tumour cell line growth inhibition, 48 h
NCI-H23 lung = system: NCI-H23 lung
OVCAR-5 ovarian = system: OVCAR-5 ovarian
HCT-116 colon = system: HCT-116 colon
UACC-257 melanoma = system: UACC-257 melanoma
NCI-H460 lung = system: NCI-H460 lung
OVCAR-8 ovarian = system: OVCAR-8 ovarian
CAKI-1 renal = system: CAKI-1 renal
SK-OV-3 ovarian = system: SK-OV-3 ovarian
TK-10 renal = system: TK-10 renal
U251 CNS = system: U251 CNS

SMILES | GI50 (NCI-H23 lung) [µM] | TGI (NCI-H23 lung) | GI50 (OVCAR-5 ovarian) [µM] | TGI (OVCAR-5 ovarian) [µM] | GI50 (HCT-116 colon) [µM] | TGI (HCT-116 colon) | GI50 (UACC-257 melanoma) [µM] | TGI (UACC-257 melanoma) [µM] | GI50 (NCI-H460 lung) [µM] | TGI (NCI-H460 lung) [µM] | GI50 (OVCAR-8 ovarian) [µM] | TGI (OVCAR-8 ovarian) | GI50 (CAKI-1 renal) [µM] | TGI (CAKI-1 renal) | GI50 (SK-OV-3 ovarian) [µM] | TGI (SK-OV-3 ovarian) [µM] | GI50 (TK-10 renal) [µM] | TGI (TK-10 renal) | GI50 (U251 CNS) [µM] | TGI (U251 CNS)
C#CCC(Cc1cnc2nc(N)nc(N)c2n1)c1ccc(C(=O)N[C@@H](CCC(=O)O)C(=O)O)cc1 (some centres undefined) | < 0.0174 | > 100 µM | < 0.01 | > 100 | < 0.01 | > 100 µM | 0.0243 | > 100 | < 0.01 | > 100 | < 0.01 | > 100 µM | < 0.01 | > 100 µM | < 0.01 | > 100 | < 0.01 | > 100 µM | < 0.01 | > 100 µM
CC(C)(O)CS(=O)(=O)Nc1ccc2c(c1)CCN(C(=O)COc1cccnc1)C2 | > 100 | > 100 µM | – | > 100 | 0.0311 | > 100 µM | > 100 | > 100 | 11.5 | > 100 | 0.0177 | > 100 µM | > 92.4 | > 100 µM | > 100 | > 100 | > 100 | > 100 µM | > 62.7 | > 100 µM
O=C1NC(=O)C2C(=O)NC(=O)C1C2(c1ccccc1)c1cc[nH]c1 (centres undefined) | – | > 100 µM | – | > 100 | – | – | – | > 100 | – | > 100 | – | > 100 µM | – | > 100 µM | – | > 100 | – | > 100 µM | – | –
N#Cc1c(NN)nc(NN)c(C#N)c1-c1ccccc1 | – | > 100 µM | – | > 100 | – | > 100 µM | – | > 100 | – | > 100 | – | > 100 µM | – | > 100 µM | – | > 100 | – | > 100 µM | – | –
CCOC(=O)c1[nH]c(Br)c(-c2ccc(Br)cc2)c1Br | 2.48 | 6.94 µM and 14.3 µM | 5.77 | > 100 | 0.445 | 1.92 µM and 10.6 µM | 0.597 | 42.9 | – | > 100 | – | 2.65 µM and 2.42 µM | 0.49 | 3.06 µM and 2.62 µM | 0.967 | 6.28 | 2.34 | 9.99 µM and 11.3 µM | 0.394 | 3.55 µM and 1.93 µM
Cc1cc2nc(CCC(=O)O)c(=O)[nH]c2cc1C | – | > 100 µM | – | > 100 | – | > 100 µM | – | > 100 | – | > 100 | – | > 100 µM | – | > 100 µM | – | > 100 | – | > 100 µM | – | > 100 µM
O=C1/C(=C/c2ccccc2)CN(C(=O)c2cccnc2)C/C1=C\c1ccccc1 | 1.83 | 5.19 µM | 2 | 5.13 | 0.319 | 0.88 µM | 3.2 | 11 | 2.58 | 11 | 2.08 | 11.8 µM | 2.83 | 10.3 µM | 3.52 | 11.6 | 3.57 | 13.4 µM | 0.435 | 2.41 µM
